Data as given in patent US8134015B2, “Compound inhibiting in vivo phosphorous transport and medicine containing the same” (Kyowa Hakko Kirin Co., Ltd., priority 2003, dated 2012).

What follows are compounds tested against T1, rat NaPi-2b (Rattus norvegicus, UniProt Q9JJ09) (assay: Sodium-dependent phosphate uptake of Xenopus oocytes which expressed NaPi-2b (32P)). Conditions: Xenopus oocytes expressing rat NaPi-2b, 32P radioactive phosphorus; read-out: IC50 (phosphate uptake inhibitory activity).
T1 construct: expressed in transfected cells; host or cells: Xenopus oocytes injected with cRNA
T1 sequence (Q9JJ09 1-695): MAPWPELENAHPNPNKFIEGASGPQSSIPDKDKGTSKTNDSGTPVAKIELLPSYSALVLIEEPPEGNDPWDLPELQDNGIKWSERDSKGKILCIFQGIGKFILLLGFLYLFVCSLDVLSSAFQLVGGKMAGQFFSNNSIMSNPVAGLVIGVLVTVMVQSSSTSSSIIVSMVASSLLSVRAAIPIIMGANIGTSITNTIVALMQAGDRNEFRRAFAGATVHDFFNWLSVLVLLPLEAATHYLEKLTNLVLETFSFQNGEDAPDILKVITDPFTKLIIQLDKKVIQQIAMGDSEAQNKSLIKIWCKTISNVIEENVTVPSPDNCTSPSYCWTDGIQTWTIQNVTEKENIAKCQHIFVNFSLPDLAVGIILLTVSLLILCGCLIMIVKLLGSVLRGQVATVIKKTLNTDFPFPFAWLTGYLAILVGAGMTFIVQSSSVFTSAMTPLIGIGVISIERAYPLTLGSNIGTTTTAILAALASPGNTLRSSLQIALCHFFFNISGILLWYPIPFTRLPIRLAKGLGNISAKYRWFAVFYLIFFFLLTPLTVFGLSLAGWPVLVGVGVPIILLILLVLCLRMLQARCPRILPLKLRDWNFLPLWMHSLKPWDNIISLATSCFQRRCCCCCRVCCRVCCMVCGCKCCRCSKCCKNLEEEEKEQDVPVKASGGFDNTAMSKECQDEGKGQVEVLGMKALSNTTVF
Format: cell-based
Method in brief: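 Rat NaPi-2b cloned from small-intestine cDNA; cRNA injected into Xenopus oocytes, expression for 2 days. Phosphate uptake inhibition measured with 32P; percent inhibition at 300 μM and 100 μM read from the same inhibition curve.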

Compound | IC50 [µM]
CCN(CC)CCN(C)Cc1cccc(C(=O)Nc2ccc(OCCOCCOC)cc2C(=O)N/N=C/c2cccc(F)c2)c1 [Compound 1033, 3-{[(2-Diethylamino-ethyl)-methyl-amino]-methyl}-N-{2-(3-fluoro-benzylidene-hydrazinocarbonyl)-4-[2-(2-methoxy-ethoxy)-ethoxy]-phenyl}-benzamide] | 18.7
CCN(CC)CCN(C)Cc1cccc(C(=O)Nc2ccc(OCCOCCOC)cc2C(=O)N/N=C/c2ccc(C)cc2)c1 [Compound 1034, 3-{[(2-Diethylamino-ethyl)-methyl-amino]-methyl}-N-[4-[2-(2-methoxy-ethoxy)-ethoxy]-2-(4-methyl-benzylidene-hydrazinocarbonyl)-phenyl]-benzamide] | 17.2
CCN(CC)CCN(C)Cc1cccc(C(=O)Nc2ccc(OCCOCCOC)cc2C(=O)N/N=C/c2ccc(C)c(C)c2)c1 [Compound 1035, 3-{[(2-Diethylamino-ethyl)-methyl-amino]-methyl}-N-{2-(3,4-dimethyl-benzylidene-hydrazinocarbonyl)-4-[2-(2-methoxy-ethoxy)-ethoxy]-phenyl}-benzamide] | 3.7
CCN(CC)CCN(C)Cc1cccc(C(=O)Nc2ccc(OCCOCCOC)cc2C(=O)N/N=C/c2ccc(Cl)c(C(F)(F)F)c2)c1 [Compound 1036, N-{2-(4-Chloro-3-trifluoromethyl-benzylidene-hydrazinocarbonyl)-4-[2-(2-methoxy-ethoxy)-ethoxy]-phenyl}-3-{[(2-diethylamino-ethyl)-methyl-amino]-methyl}-benzamide] | 1.5
CCN(CC)CCN(C)Cc1cccc(C(=O)Nc2ccc(OCCOCCOC)cc2C(=O)N/N=C/c2ccc(OC)cc2)c1 [Compound 1037, 3-{[(2-Diethylamino-ethyl)-methyl-amino]-methyl}-N-{2-(4-methoxy-benzylidene-hydrazinocarbonyl)-4-[2-(2-methoxy-ethoxy)-ethoxy]-phenyl}-benzamide] | 38.5
CCN(CC)CCN(C)Cc1cccc(C(=O)Nc2ccc(OCCCN3CCCCC3)cc2C(=O)N/N=C/c2ccc(Cl)c(C(F)(F)F)c2)c1 [Compound 1038, N-[2-(4-Chloro-3-trifluoromethyl-benzylidene-hydrazinocarbonyl)-4-(3-piperidin-1-yl-propoxy)-phenyl]-3-{[(2-diethylamino-ethyl)-methyl-amino]-methyl}-benzamide] | 3.35
O=C(Nc1ccc(OCCCN2CCCCC2)cc1C(=O)N/N=C/c1ccc(Cl)c(C(F)(F)F)c1)c1cccc(CSCCO)c1 [Compound 1039, N-[2-(4-Chloro-3-trifluoromethyl-benzylidene-hydrazinocarbonyl)-4-(3-piperidin-1-yl-propoxy)-phenyl]-3-(2-hydroxy-ethylsulfanylmethyl)-benzamide] | 2.76
COc1ccc(/C=N/NC(=O)c2cc(OCCCN3CCCCC3)ccc2NC(=O)c2cccc(CSCCO)c2)cc1 [Compound 1040, 3-(2-Hydroxy-ethylsulfanylmethyl)-N-[2-(4-methoxy-benzylidene-hydrazinocarbonyl)-4-(3-piperidin-1-yl-propoxy)-phenyl]-benzamide] | 52.2

Same assay, conditions: phosphate uptake, oocytes expressing rat NaPi-2b; 300 μM, determined from inhibition curve

Compound | inhibition at 300 µM [%]
CCN(CC)CCN(C)Cc1cccc(C(=O)Nc2cc(OCCOC)c(OCCOC)cc2C(=O)N/N=C/c2ccc(Cl)c(C(F)(F)F)c2)c1 [Compound 1031, N-[2-(4-Chloro-3-trifluoromethyl-benzylidene-hydrazinocarbonyl)-4,5-bis-(2-methoxy-ethoxy)-phenyl]-3-{[(2-diethylamino-ethyl)-methyl-amino]-methyl}-benzamide] | 58.8
CCN(CC)CCN(C)Cc1cccc(C(=O)Nc2cc(OCCOC)c(OCCOC)cc2C(=O)N/N=C/c2ccc(OC)cc2)c1 [Compound 1032, 3-{[(2-Diethylamino-ethyl)-methyl-amino]-methyl}-N-[2-(4-methoxy-benzylidene-hydrazinocarbonyl)-4,5-bis-(2-methoxy-ethoxy)-phenyl]-benzamide] | 40
